# Reference: paper PMC11198769, “Enhancement of transcription efficiency by TAR-Tat system increases the functional expression of human olfactory receptors” (PLOS ONE, 2024)
# Legend:
# Test in all cases: Comprehensive analysis (screening) of hORs against n-hexanal
# Assay type in all cases: cell-based
# OR8B8 = molecular target: T1, OR8B8 (Homo sapiens, UniProt Q15620); conditions: OR8B8, 500 μM n-hexanal, with the TAR-Tat system (hOR/pHEK), n = 1
# T1 construct: Lucy tag (N); FLAG (N); Rho tag (N); expressed in transfected cells; host or cells: Flp-In T-REx-293 cells stably expressing RTP1S, Gαolf and Ric8-b
# T1 sequence (Q15620 1-311): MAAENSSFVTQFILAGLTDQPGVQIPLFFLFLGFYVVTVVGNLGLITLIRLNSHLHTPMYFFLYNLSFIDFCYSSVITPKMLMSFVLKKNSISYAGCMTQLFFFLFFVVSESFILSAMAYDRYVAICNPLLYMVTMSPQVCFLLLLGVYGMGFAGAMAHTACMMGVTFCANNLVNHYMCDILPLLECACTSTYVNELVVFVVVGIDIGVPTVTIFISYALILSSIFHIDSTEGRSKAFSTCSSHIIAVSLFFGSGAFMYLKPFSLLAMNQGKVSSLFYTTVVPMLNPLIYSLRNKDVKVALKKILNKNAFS
# Procedure: (§1) Transfection was performed as described in the “hOR assay,” but 12.5 ng of 379 hOR plasmids (hOR/pBApo and hOR/pHEK) was transfected with the 12.5 ng pGlosensor^TM-22F cAMP biosensor plasmid (Promega) in 384 plates per well. After loading the GloSensor cAMP substrate and preincubation, the assay buffer was added (30 μL/well). After 10 min of equilibration, luminescence was measured (L0). Then, 50 mM n-hexanal, which was diluted with 10% DMSO/assay buffer, was added (4.7 μL/well). After 9 min, luminescence was measured (L9min). All the L9min values were subtracted by the L0 value (ΔL).
# OR10H3 = molecular target: T2, OR10H3 (Homo sapiens, UniProt O60404); conditions: OR10H3, 500 μM n-hexanal, with the TAR-Tat system (hOR/pHEK), n = 1
# T2 construct: Lucy tag (N); expressed in transfected cells; host or cells: Flp-In T-REx-293 cells stably expressing RTP1S, Gαolf and Ric8-b
# T2 sequence (O60404 1-316): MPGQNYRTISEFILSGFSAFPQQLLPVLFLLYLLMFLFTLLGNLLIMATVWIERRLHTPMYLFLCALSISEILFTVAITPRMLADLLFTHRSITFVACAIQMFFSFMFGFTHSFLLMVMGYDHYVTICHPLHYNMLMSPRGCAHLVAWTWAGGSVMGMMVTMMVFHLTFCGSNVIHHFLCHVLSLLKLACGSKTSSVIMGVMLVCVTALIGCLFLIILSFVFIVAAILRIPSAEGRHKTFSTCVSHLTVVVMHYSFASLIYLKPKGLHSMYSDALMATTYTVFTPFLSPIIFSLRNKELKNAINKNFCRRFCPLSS
# Procedure: as §1
# OR8B4 = molecular target: T3, OR8B4 (Homo sapiens, UniProt Q96RC9); conditions: OR8B4, 500 μM n-hexanal, with the TAR-Tat system (hOR/pHEK), n = 1
# T3 construct: Lucy tag (N); FLAG (N); Rho tag (N); expressed in transfected cells; host or cells: Flp-In T-REx-293 cells stably expressing RTP1S, Gαolf and Ric8-b
# T3 sequence (Q96RC9 1-309): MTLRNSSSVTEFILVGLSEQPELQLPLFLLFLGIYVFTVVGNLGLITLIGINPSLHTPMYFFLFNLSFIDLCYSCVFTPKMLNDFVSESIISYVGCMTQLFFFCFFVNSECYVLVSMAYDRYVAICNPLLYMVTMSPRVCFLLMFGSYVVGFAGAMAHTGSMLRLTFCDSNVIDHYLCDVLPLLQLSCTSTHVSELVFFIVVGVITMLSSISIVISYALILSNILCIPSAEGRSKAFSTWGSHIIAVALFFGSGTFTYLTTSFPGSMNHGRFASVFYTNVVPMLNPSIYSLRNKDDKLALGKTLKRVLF
# Procedure: as §1
# OR2Z1 = molecular target: T4, OR2Z1 (Homo sapiens, UniProt Q8NG97); conditions: OR2Z1, 500 μM n-hexanal, with the TAR-Tat system (hOR/pHEK), n = 1
# T4 construct: Lucy tag (N); FLAG (N); Rho tag (N); expressed in transfected cells; host or cells: Flp-In T-REx-293 cells stably expressing RTP1S, Gαolf and Ric8-b
# T4 sequence (Q8NG97 1-314): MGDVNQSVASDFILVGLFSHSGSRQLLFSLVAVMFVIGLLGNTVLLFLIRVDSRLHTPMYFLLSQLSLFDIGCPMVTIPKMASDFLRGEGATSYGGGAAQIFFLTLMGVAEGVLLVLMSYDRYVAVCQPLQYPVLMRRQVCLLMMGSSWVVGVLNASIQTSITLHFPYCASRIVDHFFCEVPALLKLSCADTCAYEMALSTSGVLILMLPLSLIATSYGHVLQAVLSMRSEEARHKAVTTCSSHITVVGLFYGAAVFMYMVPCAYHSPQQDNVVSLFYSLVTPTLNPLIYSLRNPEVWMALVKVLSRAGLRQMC
# Procedure: as §1
# OR2W1 = molecular target: T5, OR2W1 (Homo sapiens, UniProt Q9Y3N9); conditions: OR2W1, 500 μM n-hexanal, n = 1
# T5 construct: Lucy tag (N); FLAG (N); Rho tag (N); expressed in transfected cells; host or cells: Flp-In T-REx-293 cells stably expressing RTP1S, Gαolf and Ric8-b
# T5 sequence (Q9Y3N9 1-320): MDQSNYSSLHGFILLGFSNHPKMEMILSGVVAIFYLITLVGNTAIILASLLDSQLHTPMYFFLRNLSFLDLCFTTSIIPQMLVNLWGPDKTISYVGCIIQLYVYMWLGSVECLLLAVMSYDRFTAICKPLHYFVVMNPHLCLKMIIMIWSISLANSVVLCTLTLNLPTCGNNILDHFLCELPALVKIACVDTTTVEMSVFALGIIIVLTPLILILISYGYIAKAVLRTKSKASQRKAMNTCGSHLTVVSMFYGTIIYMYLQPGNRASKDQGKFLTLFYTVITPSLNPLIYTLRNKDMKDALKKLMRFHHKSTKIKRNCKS
# Procedure: as §1
# OR8B3 = molecular target: T6, OR8B3 (Homo sapiens, UniProt Q8NGG8); conditions: OR8B3, 500 μM n-hexanal, with the TAR-Tat system (hOR/pHEK), n = 1
# T6 construct: Lucy tag (N); FLAG (N); Rho tag (N); expressed in transfected cells; host or cells: Flp-In T-REx-293 cells stably expressing RTP1S, Gαolf and Ric8-b
# T6 sequence (Q8NGG8 1-313): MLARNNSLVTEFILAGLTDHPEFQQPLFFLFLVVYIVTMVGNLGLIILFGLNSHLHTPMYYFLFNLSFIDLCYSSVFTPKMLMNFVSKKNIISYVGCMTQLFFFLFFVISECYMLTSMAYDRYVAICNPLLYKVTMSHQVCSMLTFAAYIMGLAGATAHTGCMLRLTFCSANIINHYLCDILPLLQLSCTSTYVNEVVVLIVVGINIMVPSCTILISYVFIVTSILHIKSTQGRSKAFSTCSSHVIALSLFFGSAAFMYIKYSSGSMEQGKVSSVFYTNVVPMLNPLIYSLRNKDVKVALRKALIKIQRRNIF
# Procedure: as §1
smiles,measurement,setting,value
CCCCCC=O [n-hexanal],response value (ΔL),OR8B8,> 500
same,response value (ΔL),OR10H3,> 500
same,response value (ΔL),OR8B4,> 500
same,response value (ΔL),OR2Z1,> 500
same,response value (ΔL),OR2W1; with the TAR-Tat system (hOR/pHEK),9310
same,response value (ΔL),OR2W1; without the TAR-Tat system (control plasmid),3463
same,response value (ΔL),OR8B3,> 500
